Assay results taken from patent US12404283B2, “c-MYC mRNA translation modulators and uses thereof in the treatment of cancer” (Anima Biotech Inc., priority 2022, dated 2025).

System: c-Myc
Experiment: c-Myc immunofluorescence assay
Assay type: cell-based, human
Details: A549 cells, 24 hours treatment, anti-c-Myc immunofluorescence
Method: A549 human non-small cell lung carcinoma cells were treated for 24 hours with increasing compound concentration, cells were fixed and stained with a nuclei stain (DAPI) and anti-c-Myc fluorescent antibody. The c-Myc signal was quantified by image analysis, and data was exported and analyzed using TIBCO Spotfire® (TIBCO Corporation). Dose response curves were generated and fitted with logaristic regression to calculate potency (EC50 values). Potency values are presented in Table 2 for all compounds and are shown for selected compounds (FIG. 4).
A549 cells were grown in 384-wells plates (Perkin Elmer, Cat. 6057300) for 48 hours, treated with compounds and then fixed for 20 min in 4% paraformaldehyde. After that permeabilization was done using 0.1% Triton X-100 in PBS for 20 min. Primary anti-c-Myc antibody (Abcam, ab32072) staining was performed for 90 min at room temperature. Cells then were washed twice with PBS and incubated with secondary antibody (Abcam, ab150075) for 90 min at room temperature. Nuclei were stained with DAPI for 10 min and washed twice with PBS.
Cell images were taken with Operetta (Perkin Elmer, USA), a wide-field fluorescence microscope at 20× magnification. After acquisition, the images were transferred to Columbus software (Perkin-Elmer) for image analysis. In Columbus, cells were identified by their nucleus, using the “Find Nuceli” module and cytoplasm was detected based on the secondary antibody channel. Subsequently, the fluorescent signal was enumerated in the identified cell region. Then data was exported to a data analysis and visualization software, Tibco Spotfire, USA.

Structure (SMILES) | Myc Efficacy (−LogEC50)
O=C(NCCCN1CCC(F)CC1)c1ccc2c(c1)sc1nc(-c3ccc(C4CC(O)CN4)cc3F)cn12 (stereo not drawn) [Compound 493, 2-(2-fluoro-4-(4-hydroxypyrrolidin-2-yl)phenyl)-N-(3-(4-fluoropiperidin-1-yl)propyl)benzo[d]imidazo[2,1-b]thiazole-7-carboxamide] | +++ (+++ ≥6)
CNC(=O)c1ccc2c(c1)sc1nc(-c3ccc(C4CCCN4)cc3F)cn12 (stereo not drawn) [Compound 498, 2-(2-fluoro-4-(pyrrolidin-2-yl)phenyl)-N-methylbenzo[d]imidazo[2,1-b]thiazole-7-carboxamide] | +++ (+++ ≥6)
CN1CCC(NC(=O)c2ccc3c(c2)sc2nc(-c4ccc(C5CCCN5)cc4F)cn23)CC1 (stereo not drawn) [Compound 500, 2-(2-fluoro-4-(pyrrolidin-2-yl)phenyl)-N-(1-methylpiperidin-4-yl)benzo[d]imidazo[2,1-b]thiazole-7-carboxamide] | +++ (+++ ≥6)
O=C(NCCCN1CCC(F)CC1)c1cc2sc3nc(-c4ccc(C5CCCN5)cc4F)cn3c2cn1 (stereo not drawn) [Compound 501, 2-(2-fluoro-4-(pyrrolidin-2-yl)phenyl)-N-(3-(4-fluoropiperidin-1-yl)propyl)imidazo[2′,1′:2,3]thiazolo[4,5-c]pyridine-7-carboxamide] | +++ (+++ ≥6)
CN1CCC(NC(=O)c2ccc3c(c2)sc2nc(-c4ccc([C@H]5CCCN5)cc4F)cn23)CC1 [Compound 503R, (R)-2-(2-fluoro-4-(pyrrolidin-2-yl)phenyl)-N-(1-methylpiperidin-4-yl)benzo[d]imidazo[2,1-b]thiazole-7-carboxamide] | +++ (+++ ≥6)
CN1CCC(NC(=O)c2ccc3c(c2)sc2nc(-c4ccc([C@@H]5CCCN5)cc4F)cn23)CC1 [Compound 503S, (S)-2-(2-fluoro-4-(pyrrolidin-2-yl)phenyl)-N-(1-methylpiperidin-4-yl)benzo[d]imidazo[2,1-b]thiazole-7-carboxamide] | +++ (+++ ≥6)
CNC(=O)c1ccc2c(c1)sc1nc(-c3ccc(C4CCNC4)cc3F)cn12 (stereo not drawn) [Compound 504, 2-(2-fluoro-4-(pyrrolidin-3-yl)phenyl)-N-methylbenzo[d]imidazo[2,1-b]thiazole-7-carboxamide] | +++ (+++ ≥6)
CN1CCC(NC(=O)c2ccc3c(c2)sc2nc(-c4ccc(C5CCNC5)cc4F)cn23)CC1 (stereo not drawn) [Compound 505, 2-(2-fluoro-4-(pyrrolidin-3-yl)phenyl)-N-(1-methylpiperidin-4-yl)benzo[d]imidazo[2,1-b]thiazole-7-carboxamide] | +++ (+++ ≥6)
CN1CC(NC(=O)c2ccc3c(c2)sc2nc(-c4ccc(C5CCCN5)cc4F)cn23)C1 (stereo not drawn) [Compound 506, 2-(2-fluoro-4-(pyrrolidin-2-yl)phenyl)-N-(1-methylazetidin-3-yl)benzo[d]imidazo[2,1-b]thiazole-7-carboxamide] | +++ (+++ ≥6)
O=C1CNC(c2ccc(-c3cn4c(n3)sc3cc(C(=O)NCCCN5CCC(F)CC5)ccc34)c(F)c2)C1 (stereo not drawn) [Compound 507, 2-(2-fluoro-4-(4-oxopyrrolidin-2-yl)phenyl)-N-(3-(4-fluoropiperidin-1-yl)propyl)benzo[d]imidazo[2,1-b]thiazole-7-carboxamide] | +++ (+++ ≥6)
O=C(NCCCN1CCC(F)CC1)c1ccc2c(c1)sc1nc(-c3ccc(C4CCNCC4)cc3F)cn12 [Compound 508, 2-(2-fluoro-4-(piperidin-4-yl)phenyl)-N-(3-(4-fluoropiperidin-1-yl)propyl)benzo[d]imidazo[2,1-b]thiazole-7-carboxamide] | +++ (+++ ≥6)
O=C(NCCCN1CCC(F)CC1)c1cc2sc3nc(-c4ccc([C@H]5CCCN5)cc4F)cn3c2cn1 [Compound 509R, (R)-2-(2-fluoro-4-(pyrrolidin-2-yl)phenyl)-N-(3-(4-fluoropiperidin-1-yl)propyl)imidazo[2′,1′:2,3]thiazolo[4,5-c]pyridine-7-carboxamide] | +++ (+++ ≥6)
